Measurements from patent publication US9993423B2, “Microneedle deposition method” (COSMED PHARMACEUTICAL CO., LTD., priority 2011, dated 2018).

System: diabetes model rats created by administration of streptozotocin
Assay: Blood glucose level measurement test after insulin administration
Type: in vivo, rat
Details: 0.5, 1 and 2 hours, fasted diabetes model rats, FIG. 2
Protocol: Insulin was transdermally administered to rats using the manufactured microneedle array.
In diabetes model rats created by administration of streptozotocin (Body weight: about 300 g), their abdomens were dehaired. After these rats were fasted for 14 hours or longer, the microneedle array was inserted to the dehaired skin and fixed to the skin by YU-KI BAN (NITTO MEDICAL CORPORATION). Blood was sampled 0.5, 1 and 2 hours after administration of the microneedle array, and the blood glucose levels were measured. For measurement of the blood glucose levels, Glucose CII-test kit (Wako Pure Chemical Industries, Ltd.) was used. The tests were conducted in four cases.
Insulin was subcutaneously injected to rats.
After the diabetes model rats were fasted for 14 hours or longer, 0.25 units of insulin were subcutaneously injected. Blood was sampled 0.5, 1 and 2 hours after administration of insulin, and the blood glucose levels were measured. For measurement of the blood glucose levels, Glucose CII-test kit was used like Example 1. […]. The tests were conducted in four cases.
As a standard of the blood glucose level measurement test, a control (no insulin) was measured.
After the diabetes model rats were fasted for 14 hours or longer, blood was sampled 0.5, 1 and 2 hours later, and the blood glucose levels were measured. […]

Substance: insulin: Bovine insulin (NACALAI TESQUE), given on hyaluronic acid microneedle array tips (0.25 unit per array) or by subcutaneous injection
- blood glucose level (relative value, time zero = 100) (microneedle array, 0.25 unit insulin, transdermal on dehaired abdomen): lowered
- blood glucose level (relative value, time zero = 100) (subcutaneous injection, 0.25 units of insulin): lowered
